Results on 15 compounds are retold here after patent US7208517B1, “Endothelin antagonists” (Abbott Labortories, priority 1994, dated 2007).

Experiment [1] deals with T1, human ETB receptor (Homo sapiens, UniProt P24530).
T1 construct: expressed in transfected cells; host or cells: CHO cells, permanently transfected
T1 sequence (P24530 27-442): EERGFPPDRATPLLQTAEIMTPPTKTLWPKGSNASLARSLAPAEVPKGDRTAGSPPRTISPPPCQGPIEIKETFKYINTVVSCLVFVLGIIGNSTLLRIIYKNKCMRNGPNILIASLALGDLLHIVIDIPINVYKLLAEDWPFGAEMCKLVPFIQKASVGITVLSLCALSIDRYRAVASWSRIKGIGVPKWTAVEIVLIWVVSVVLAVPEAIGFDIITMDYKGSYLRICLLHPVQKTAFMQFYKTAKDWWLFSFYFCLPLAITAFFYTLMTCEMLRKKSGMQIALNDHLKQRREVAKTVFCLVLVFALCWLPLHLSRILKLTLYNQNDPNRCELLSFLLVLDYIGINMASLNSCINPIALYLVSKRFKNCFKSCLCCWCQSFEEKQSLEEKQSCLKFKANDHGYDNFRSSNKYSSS
In words: ETA/ETB selectivity: (125I)ET-3 competition binding, CHO cells transfected with human ETB receptor (hET-B). To be noted: CHO cells transfected with human ETB receptor; 0.1 nM (125I)ET-3; read-out: hET-B IC50. As to the method:
MMQ cells, porcine cerebellar tissues (known to contain ETB receptors) and chinese hamster ovary cells (CHO) permanently transfected with the human ETA or ETB receptor were homogenized in 25 ml of 10 mM Hepes (pH 7.4) containing 0.25 M sucrose and a protease inhibitor [50 mM EDTA, 0.1 mM PMSF, 5 μg/ml Pepstatin A, and 0.025% Bacitracin] using a micro ultrasonic cell disrupter. The mixture was centrifuged at 1000×g for 10 min. The supernatant was collected and centrifuged at 60,000×g for 60 min. The precipitate was resuspended in 20 mM Tris, pH 7.4 containing protease inhibitor and centrifuged again. The final membrane pellet was resuspended in 20 mM Tris, pH 7.4 containing protease inhibitors and stored at −80° C. until used. Protein content was determined by the Bio-Rad dye-binding protein assay.
Binding assays were performed in 96-well microtiter plates pretreated with 0.1% BSA. Membranes prepared from cells were diluted 100 fold in Buffer B (20 mM Tris, 100 mM NaCl, 10 mM MgCl2, pH 7.4, with 0.2% BSA, 0.1 mM PMSF, 5 μg/mL Pepstatin A, 0.025% bacitracin, and 50 mM EDTA) to a final concentration of 0.2 mg/mL of protein. In competition binding studies, membranes (0.02 mg) were incubated with 0.1 nM of (^125I)ET-1 (for ETA assay in MMQ or CHO cells transfected with human ETA receptor) or (^125I)ET-3 (for ETB assay in porcine cerebellum or CHO cells transfected with human ETB receptor) in Buffer B (final volume: 0.2 mL) in the presence of increasing concentrations of the test compound for 3 hours at 25° C. After incubation, unbound ligands were separated from bound ligands by a vacuum filtration method using glass-fiber filter strips in PHD cell harvesters (Cambridge Technology, Inc., MA), washing the filter strips three times with saline (1 mL). Nonspecific binding was determined in the presence of 1 μM ET-1. IC50 values are calculated using an average of at least two separate determinations.

For experiment [2], the target named is T2, ETA Receptor (Rattus norvegicus, UniProt P26684).
T2 construct: endogenous in cells; host or cells: MMQ rat pituitary cells (membranes)
T2 sequence (P26684 21-426): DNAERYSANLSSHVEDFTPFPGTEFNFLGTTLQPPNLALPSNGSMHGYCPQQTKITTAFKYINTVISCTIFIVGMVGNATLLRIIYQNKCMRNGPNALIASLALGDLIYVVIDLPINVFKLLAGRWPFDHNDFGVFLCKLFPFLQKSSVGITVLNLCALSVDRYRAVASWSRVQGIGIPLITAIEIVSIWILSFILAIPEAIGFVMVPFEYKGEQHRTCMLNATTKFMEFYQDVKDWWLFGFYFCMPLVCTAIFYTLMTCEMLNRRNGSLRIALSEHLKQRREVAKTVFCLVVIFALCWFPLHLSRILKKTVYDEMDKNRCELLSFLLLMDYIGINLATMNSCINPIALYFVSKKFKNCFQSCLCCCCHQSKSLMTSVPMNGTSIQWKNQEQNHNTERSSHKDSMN
In words: [125I]ET-1 binding to membranes from MMQ cells (ETA receptor binding assay, Table 4). As to conditions: test compound at 1 μM; 0.1 nM [125I]ET-1, MMQ cell membranes, 4 hours at 25° C.; read-out: % Inhibition of ETA at 1 μM.

What is called IC50 is the concentration at which inhibition is half-maximal. The inhibition is the change of the read-out against control, counted positive when it falls. Regarding `CCCCN(CCCC)C(=O)CN1CC(c2ccc3c(c2)OCO3)C(C(=O)O)C1CCC1CCCCO1` (stereo not drawn) [compound 505], in experiment [1], the concentration for half-maximal inhibition (IC50) was 68 µM. The inhibition at 1 µM in experiment [2] turned out to be 95.8%.

`CCCCN(C(=O)CN1CC(c2ccc3c(c2)OCO3)C(C(=O)O)C1c1ccc(OC)cc1)c1cccnc1` (stereo not drawn) [compound 531]: the IC50 in experiment [1] stood at 0.87 µM. Moreover, the inhibition at 1 µM in experiment [2] came out at 99.8%.

In the case of `CCCCN(CCCC)C(=O)CN1C[C@H](c2ccc3c(c2)OCO3)[C@@H](C(=O)O)[C@@H]1CC(C)(C)CCC` [compound 537], the IC50 in experiment [1] turned out to be 1.9 µM. Besides, the inhibition at 1 µM in experiment [2] was determined as 97.2%.

Take `CCCCN(CCCO)C(=O)CN1CC(c2ccc3c(c2)OCO3)C(C(=O)O)C1c1ccc(OC)cc1` (stereo not drawn) [compound 523]: in experiment [1], the half-inhibitory concentration (IC50) is 0.29 µM. Besides, the inhibition at 1 µM in experiment [2] turned out to be 99%.

In the case of `CCCCN(CCCC)C(=O)CN1CC(c2ccc3c(c2)OCO3)C(C(=O)O)C1CCC1OCCO1` (stereo not drawn) [compound 504], the IC50 in experiment [1] was > 100 µM. Moreover, in experiment [2], the inhibition at 1 µM was 97.1%.

As to `CCCC(CCC)N(C(=O)CN1CC(c2cc(OC)c3c(c2)OCO3)C(C(=O)O)C1CCC1OCCO1)c1ccc(F)c(C)c1` (stereo not drawn) [compound 513], the IC50 in experiment [1] was 14 µM. Moreover, the inhibition at 1 µM in experiment [2] is 98%.

Regarding `CCCCN(CCCC)C(=O)CN1CC(c2cc(OC)c3c(c2)OCO3)C(C(=O)O)C1CC(C)(C)C1OCCO1` (stereo not drawn) [compound 516], in experiment [1], the IC50 worked out at 37 µM. For the same compound, the inhibition at 1 µM in experiment [2] turned out to be 99.7%.

For `CCCCN(CCCC)C(=O)CN1CC(c2ccc3c(c2)OCO3)C(C(=O)O)C1CC(C)(C)C=C(C)C` (stereo not drawn) [compound 506], in experiment [1], the half-maximal inhibitory concentration (IC50) was 61 µM. The inhibition at 1 µM in experiment [2] was found to be 99.7%.

On to `CCCCN(CCCC)C(=O)CN1CC(c2ccc3c(c2)OCO3)C(C(=O)O)C1CCc1ccccc1OC` (stereo not drawn) [compound 517], for which the IC50 in experiment [1] came to 12 µM. Moreover, the inhibition at 1 µM in experiment [2] came to 94.1%.

Consider `CCCCN(CCCC)C(=O)CN1CC(c2ccc3c(c2)OCO3)C(C(=O)O)C1CC(C)(C)C1OCCO1` (stereo not drawn) [compound 507], for which the IC50 in experiment [1] was > 100 µM. Further, the inhibition at 1 µM in experiment [2] was found to be 99.3%.

Turning to `CCCCN(CCCC)C(=O)CN1C[C@H](c2ccc3c(c2)CCO3)[C@@H](C(=O)O)[C@@H]1CC(C)(C)CCC` [compound 515], in experiment [1], the IC50 is > 100 µM. Also, the inhibition at 1 µM in experiment [2] worked out at 99.1%.

Turning to `CCCCN(CCCC)C(=O)CN1CC(c2ccc3c(c2)OCO3)C(C(=O)O)C1COc1ccccc1OC` (stereo not drawn) [compound 510], in experiment [1], the IC50 is 11 µM. The inhibition at 1 µM in experiment [2] stood at 100%.

In the case of `CCCON(CCC)C(=O)CN1CC(c2ccc3c(c2)OCO3)C(C(=O)O)C1c1ccc(OC)cc1` (stereo not drawn) [compound 524], the IC50 in experiment [1] stood at 0.89 µM. Also, the inhibition at 1 µM in experiment [2] came to 99.2%.

Consider `CCCCN(CCCC)C(=O)CN1CC(c2ccc3c(c2)OCO3)C(C(=O)O)C1CC(C)(C)CCC` (stereo not drawn) [compound 503], for which the IC50 in experiment [1] turned out to be 52 µM. The inhibition at 1 µM in experiment [2] came to 97%.

Take `CCCCN(CCCC)C(=O)CN1CC(c2cc(OC)c3c(c2)OCO3)C(C(=O)O)C1CCC1OCCO1` (stereo not drawn) [compound 509]: the IC50 in experiment [1] is 23 µM. Besides, in experiment [2], the inhibition at 1 µM worked out at 100%.
